Data: ChEMBL document CHEMBL4680259, “Discovery of bazedoxifene analogues targeting glycoprotein 130” (Eur J Med Chem, 2020)
The source made the active and inactive calls. The calls are words filed in the database; no cut-off is given here.

Legend:
A549 = assay: Induction of apoptosis in human A549 cells assessed as necrotic cells at 6 uM incubated for 24 hrs by annexin V-FITC and propidium iodide staining based flow cytometry analysis (reference value: 0.4 %); format: functional
[1] = target: T1, Interleukin-6 receptor subunit beta (Homo sapiens) (UniProt P40189); assay: Inhibition of GP130 in human A549 cells assessed as reduction in STAT3 dimer DNA binding activity in nuclear extract in presence of hSIE probe at 3 to 9 uM after 24 hrs by EMSA analysis; format: subcellular; conditions: Nucleus, dose 3-9 µM
T1 sequence (whole entry): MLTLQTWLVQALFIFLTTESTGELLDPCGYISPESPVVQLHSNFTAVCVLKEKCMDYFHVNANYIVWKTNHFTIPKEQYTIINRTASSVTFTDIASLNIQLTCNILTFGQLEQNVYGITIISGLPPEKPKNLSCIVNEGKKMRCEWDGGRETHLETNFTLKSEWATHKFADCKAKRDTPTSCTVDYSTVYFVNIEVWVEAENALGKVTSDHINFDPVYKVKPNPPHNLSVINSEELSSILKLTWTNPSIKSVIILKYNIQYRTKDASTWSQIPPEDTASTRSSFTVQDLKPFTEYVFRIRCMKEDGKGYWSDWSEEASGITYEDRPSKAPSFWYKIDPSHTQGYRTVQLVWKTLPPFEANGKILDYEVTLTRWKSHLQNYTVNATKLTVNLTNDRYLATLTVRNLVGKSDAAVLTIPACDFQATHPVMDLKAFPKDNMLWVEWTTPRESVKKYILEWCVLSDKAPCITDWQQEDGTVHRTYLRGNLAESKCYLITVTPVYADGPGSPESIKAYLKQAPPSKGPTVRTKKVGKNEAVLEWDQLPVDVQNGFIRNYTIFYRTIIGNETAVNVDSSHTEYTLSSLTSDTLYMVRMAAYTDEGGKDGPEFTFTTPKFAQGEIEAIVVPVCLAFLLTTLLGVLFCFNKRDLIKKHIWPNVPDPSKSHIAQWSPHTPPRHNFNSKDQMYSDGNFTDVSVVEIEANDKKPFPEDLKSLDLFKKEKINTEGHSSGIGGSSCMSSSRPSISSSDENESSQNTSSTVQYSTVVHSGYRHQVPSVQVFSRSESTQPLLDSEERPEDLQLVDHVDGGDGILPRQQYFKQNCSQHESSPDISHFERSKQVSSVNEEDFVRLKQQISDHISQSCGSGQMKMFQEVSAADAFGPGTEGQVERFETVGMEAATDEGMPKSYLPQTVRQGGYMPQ

[2] = Half life in rat at 5 mg/kg, ig; format: ADME, organism-based; conditions: in vivo, po

In the case of NC(=O)N1N=C(c2ccc(C(F)(F)F)cc2)CC1c1cn(Cc2ccc(OCCN3CCCCCC3)cc2)c2ccc(Br)cc12 (stereo not drawn), the Activity (A549) is reported as 1.9%, the inhibition [1] is reported as “Active” and the half-life [2] is reported as 9.8 h.
